Measured values as given in publication PMC12186262 (ACS Chemical Biology, 2025).
Where two headings read alike, the source gives them in different places.

How the values were obtained:
[1] = target: wild-type (WT) His-tagged SARS-CoV-2 SgP RBD (Severe acute respiratory syndrome coronavirus 2, UniProt P0DTC2); format: binding; details: for Mean fluorescence intensity (MFI): glycans printed at 100 µM, MFI scaled to positive control = 100, WT RBD 20 µg/mL
WT RBD of SARS-CoV-2 SgP [2] = target: T1, WT RBD of SARS-CoV-2 SgP (Severe acute respiratory syndrome coronavirus 2, UniProt P0DTC2); format: binding; details: read-out: KD (microarray, sigmoidal fit)
WT RBD of SARS-CoV-2 SgP [3] = target: T1, WT RBD of SARS-CoV-2 SgP; details: read-out: KD (solution fluorescence titration); pH 7.4
[4] = microarray, WT RBD, library A1-A19

SMILES	Mean fluorescence intensity (MFI) [1]	Kd (WT RBD of SARS-CoV-2 SgP [2])	other results
NCCCO[C@@H]1O[C@@H](C(=O)O)[C@@H](O[C@H]2O[C@H](CO)[C@@H](O[C@@H]3O[C@@H](C(=O)O)[C@@H](O[C@H]4O[C@H](CO)[C@@H](O)[C@H](OS(=O)(=O)O)[C@H]4N)[C@H](O)[C@H]3O)[C@H](OS(=O)(=O)O)[C@H]2N)[C@H](O)[C@H]1O [A9]	–	–	Recognition by WT RBD better than the next best molecule (A10) [1, 4]: > 250%
NCCCO[C@@H]1O[C@@H](C(=O)O)[C@@H](O[C@H]2O[C@H](CO)[C@@H](O[C@@H]3O[C@@H](C(=O)O)[C@@H](O[C@H]4O[C@H](CO)[C@@H](O)[C@H](OS(=O)(=O)O)[C@H]4N)[C@H](O)[C@H]3OS(=O)(=O)O)[C@H](OS(=O)(=O)O)[C@H]2N)[C@H](O)[C@H]1OS(=O)(=O)O [A13]	lower MFI in comparison to A9	–	–
NOCCOCCO[C@@H]1O[C@@H](C(=O)O)[C@@H](OS(=O)(=O)O)[C@H](O)[C@H]1OS(=O)(=O)O [A16]	–	–	Binding signal relative to closest neighbors [1, 4]: ~3 fold
CC(=O)N[C@H]1[C@@H](O[C@H]2[C@H](F)[C@@H](OS(=O)(=O)O)[C@H](OCCCN)O[C@@H]2C(=O)O)O[C@H](COS(=O)(=O)O)[C@@H](O)[C@@H]1OS(=O)(=O)O [B20]	> 30	–	–
NCCCO[C@@H]1O[C@H](C(=O)O)[C@@H](O[C@H]2O[C@H](COS(=O)(=O)O)[C@@H](O)[C@H](OS(=O)(=O)O)[C@H]2NS(=O)(=O)O)[C@H](F)[C@H]1O [B22]	> 30	–	–
NCCCO[C@@H]1O[C@H](C(=O)O)[C@@H](O[C@H]2O[C@H](COS(=O)(=O)O)[C@@H](O)[C@H](OS(=O)(=O)O)[C@H]2NS(=O)(=O)O)[C@H](F)[C@H]1OS(=O)(=O)O [B23]	> 30	–	–
NOCCOCCO[C@@H]1O[C@@H](COS(=O)(=O)O)[C@@H](OS(=O)(=O)O)[C@H](O)[C@H]1OS(=O)(=O)O [B30]	–	–	MFI relative to nonsulfated monosaccharide B24 and 3-O-sulfated B28 ([1]; microarray, WT RBD): 4 fold
NOCCOCCO[C@@H]1O[C@@H](COS(=O)(=O)O)[C@@H](O[C@@H]2O[C@@H](COS(=O)(=O)O)[C@@H](OS(=O)(=O)O)[C@H](O)[C@H]2OS(=O)(=O)O)[C@H](O)[C@H]1OS(=O)(=O)O [B32]	–	243 ± 41 nM	–
NOCCOCCO[C@@H]1O[C@@H](COS(=O)(=O)O)[C@@H](O[C@@H]2O[C@@H](COS(=O)(=O)O)[C@@H](O[C@@H]3O[C@@H](COS(=O)(=O)O)[C@@H](OS(=O)(=O)O)[C@H](O)[C@H]3OS(=O)(=O)O)[C@H](O)[C@H]2OS(=O)(=O)O)[C@H](O)[C@H]1OS(=O)(=O)O [B33]	–	307 ± 38 nM	–
NOCCOCCO[C@@H]1O[C@@H](COS(=O)(=O)O)[C@@H](O[C@@H]2O[C@@H](COS(=O)(=O)O)[C@@H](O[C@@H]3O[C@@H](COS(=O)(=O)O)[C@@H](O[C@@H]4O[C@@H](COS(=O)(=O)O)[C@@H](OS(=O)(=O)O)[C@H](O)[C@H]4OS(=O)(=O)O)[C@H](O)[C@H]3OS(=O)(=O)O)[C@H](O)[C@H]2OS(=O)(=O)O)[C@H](O)[C@H]1OS(=O)(=O)O [B34]	–	201 ± 64 nM	Kd (WT RBD of SARS-CoV-2 SgP [3]): 61 ± 8 nM
